In publication PMC6781469 (Journal of Enzyme Inhibition and Medicinal Chemistry, 2019):
Read-outs that look alike come from different tables or passages of the source. One block for each compound: values may come before it.

What was measured:
RAF1 = RAF1 (Homo sapiens, UniProt P04049); experiment: kinase panel screen, RAF1; conditions: read-out: % Inhibition RAF1
FLT3 (ITD) = biological target: T1, FLT3 (ITD) (Homo sapiens, UniProt P36888, ITD); experiment: kinase panel screen, FLT3 (ITD); conditions: read-out: % Inhibition FLT3 (ITD)
T1 sequence (P36888 564-993): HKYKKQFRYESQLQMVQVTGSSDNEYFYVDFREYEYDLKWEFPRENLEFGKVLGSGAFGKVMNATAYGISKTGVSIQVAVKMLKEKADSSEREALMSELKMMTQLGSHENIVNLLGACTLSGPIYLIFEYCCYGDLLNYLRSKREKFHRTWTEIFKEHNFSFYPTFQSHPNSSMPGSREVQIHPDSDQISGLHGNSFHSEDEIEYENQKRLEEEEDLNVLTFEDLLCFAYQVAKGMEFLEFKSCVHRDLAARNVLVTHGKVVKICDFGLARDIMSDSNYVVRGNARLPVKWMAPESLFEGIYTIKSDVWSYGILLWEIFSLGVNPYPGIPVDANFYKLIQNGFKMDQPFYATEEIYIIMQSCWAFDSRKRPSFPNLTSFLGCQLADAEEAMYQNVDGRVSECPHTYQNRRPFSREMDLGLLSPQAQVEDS

FMS = FMS (Homo sapiens, UniProt P07333); experiment: Reaction Biology Kinase HotSpot kinase assay, FMS
FLT3(h) = biological target: T2, FLT3(h) (Homo sapiens, UniProt P36888); experiment: Reaction Biology Kinase HotSpot radiometric kinase assay, FLT3; conditions: for times more potent than 5f against FLT3: ratio of FLT3 IC50 versus 5f
T2 sequence (P36888 27-993): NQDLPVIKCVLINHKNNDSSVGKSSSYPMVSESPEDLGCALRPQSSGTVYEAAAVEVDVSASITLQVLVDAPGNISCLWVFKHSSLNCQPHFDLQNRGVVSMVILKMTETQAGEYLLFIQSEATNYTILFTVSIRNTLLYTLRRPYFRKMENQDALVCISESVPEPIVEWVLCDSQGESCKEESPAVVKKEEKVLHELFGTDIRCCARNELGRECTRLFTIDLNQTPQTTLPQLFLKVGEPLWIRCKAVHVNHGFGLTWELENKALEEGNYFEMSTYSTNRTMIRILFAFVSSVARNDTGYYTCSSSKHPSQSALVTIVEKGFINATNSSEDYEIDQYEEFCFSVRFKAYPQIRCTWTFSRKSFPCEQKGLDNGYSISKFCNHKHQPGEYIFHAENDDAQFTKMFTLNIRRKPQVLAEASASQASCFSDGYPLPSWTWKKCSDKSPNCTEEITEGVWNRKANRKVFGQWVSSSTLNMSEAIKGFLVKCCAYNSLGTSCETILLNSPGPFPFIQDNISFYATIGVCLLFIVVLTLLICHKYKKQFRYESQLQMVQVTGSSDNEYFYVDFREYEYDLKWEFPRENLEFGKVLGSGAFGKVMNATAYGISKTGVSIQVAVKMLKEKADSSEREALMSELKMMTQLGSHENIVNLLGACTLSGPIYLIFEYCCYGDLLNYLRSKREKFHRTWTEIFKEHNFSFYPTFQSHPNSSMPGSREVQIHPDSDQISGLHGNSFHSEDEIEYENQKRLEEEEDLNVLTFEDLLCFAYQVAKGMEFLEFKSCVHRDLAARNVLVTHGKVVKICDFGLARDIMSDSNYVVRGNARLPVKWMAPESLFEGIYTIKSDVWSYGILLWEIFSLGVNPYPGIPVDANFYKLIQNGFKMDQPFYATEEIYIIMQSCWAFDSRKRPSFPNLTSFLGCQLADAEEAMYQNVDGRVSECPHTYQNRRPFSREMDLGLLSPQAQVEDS

FLT-3 = test system: FLT-3; set-up: method as in earlier work; conditions: competitive-binding assays in vitro; read-out: IC50 against FLT-3; cited from earlier work
KIT = test system: KIT; set-up: method as in earlier work; conditions: competitive-binding assays in vitro; read-out: IC50 against KIT; cited from earlier work

Sequence of FMS (P07333 20-972): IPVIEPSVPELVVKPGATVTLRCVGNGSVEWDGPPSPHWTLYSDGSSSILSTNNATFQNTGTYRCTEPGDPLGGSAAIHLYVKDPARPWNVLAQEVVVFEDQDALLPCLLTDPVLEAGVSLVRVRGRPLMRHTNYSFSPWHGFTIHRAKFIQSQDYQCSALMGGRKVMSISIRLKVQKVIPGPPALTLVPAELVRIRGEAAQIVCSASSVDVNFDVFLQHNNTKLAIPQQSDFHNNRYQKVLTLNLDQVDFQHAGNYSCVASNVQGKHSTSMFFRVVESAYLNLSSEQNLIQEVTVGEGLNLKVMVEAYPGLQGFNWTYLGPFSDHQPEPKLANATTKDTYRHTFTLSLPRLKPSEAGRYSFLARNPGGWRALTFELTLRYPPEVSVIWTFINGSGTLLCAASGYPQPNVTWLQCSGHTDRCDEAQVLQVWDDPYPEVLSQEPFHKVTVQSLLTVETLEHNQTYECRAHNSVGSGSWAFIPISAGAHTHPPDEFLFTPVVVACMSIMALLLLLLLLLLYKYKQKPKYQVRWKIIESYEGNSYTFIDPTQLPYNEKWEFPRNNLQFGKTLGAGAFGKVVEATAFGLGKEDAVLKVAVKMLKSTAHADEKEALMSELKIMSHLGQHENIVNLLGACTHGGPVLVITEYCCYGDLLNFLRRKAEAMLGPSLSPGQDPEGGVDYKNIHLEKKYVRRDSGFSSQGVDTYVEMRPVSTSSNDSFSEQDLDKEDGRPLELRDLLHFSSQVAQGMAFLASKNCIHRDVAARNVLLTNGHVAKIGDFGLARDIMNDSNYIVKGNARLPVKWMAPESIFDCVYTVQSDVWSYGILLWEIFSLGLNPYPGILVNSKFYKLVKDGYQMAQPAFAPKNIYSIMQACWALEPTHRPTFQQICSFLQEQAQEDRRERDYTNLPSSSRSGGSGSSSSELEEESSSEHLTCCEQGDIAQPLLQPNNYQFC
Sequence of RAF1 (P04049 whole entry): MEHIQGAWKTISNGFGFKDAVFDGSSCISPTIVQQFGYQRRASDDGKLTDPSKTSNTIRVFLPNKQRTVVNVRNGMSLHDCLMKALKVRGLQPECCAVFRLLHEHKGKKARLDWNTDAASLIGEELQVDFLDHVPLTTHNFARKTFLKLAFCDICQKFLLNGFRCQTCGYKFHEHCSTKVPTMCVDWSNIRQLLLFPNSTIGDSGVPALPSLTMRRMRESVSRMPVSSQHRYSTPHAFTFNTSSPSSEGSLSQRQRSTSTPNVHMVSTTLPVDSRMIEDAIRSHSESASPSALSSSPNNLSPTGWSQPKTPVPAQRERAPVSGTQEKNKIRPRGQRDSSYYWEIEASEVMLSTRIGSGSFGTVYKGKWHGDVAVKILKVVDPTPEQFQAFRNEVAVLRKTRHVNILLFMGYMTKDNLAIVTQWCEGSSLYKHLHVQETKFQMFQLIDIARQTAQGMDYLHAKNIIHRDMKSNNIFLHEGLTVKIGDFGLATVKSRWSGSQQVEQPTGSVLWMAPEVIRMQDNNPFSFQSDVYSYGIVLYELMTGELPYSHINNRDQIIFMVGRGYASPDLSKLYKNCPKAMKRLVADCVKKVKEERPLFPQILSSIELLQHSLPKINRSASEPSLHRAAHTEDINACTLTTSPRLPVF

SMILES: Cc1oncc1C(=O)Nc1ccc2nc(-c3cc(N4CCN(C)CC4)cc(C(F)(F)F)c3)[nH]c2c1 [5a, 5-methyl-N-(2-(3-(4-methylpiperazin-1-yl)-5-(trifluoromethyl)phenyl)-1H-benzo[d]imidazole-5-yl) isoxazole-4-carboxamide]
inhibition at 10 µM (RAF1): 8.47% | inhibition at 10 µM (FLT3 (ITD)): 88.5% | inhibition at 10 µM (FMS; read-out: % Inhibition FMS): 0% | IC50 (FLT3(h)): 0.495 µM | inhibition at 10 µM (FLT3(h); read-out: % Inhibition FLT3): 90%

SMILES: Cc1oncc1C(=O)Nc1ccc2[nH]c(-c3cc(N4CCOCC4)cc(C(F)(F)F)c3)nc2c1 [5b]
IC50 (FLT3(h); read-out: IC50 (µM) FLT3, enzymatic activity, Table 1, NA not defined): 7.94 µM

SMILES: Cc1oncc1C(=O)Nc1ccc2[nH]c(-c3ccc(N4CCOCC4)c(C(F)(F)F)c3)nc2c1 [5c]
IC50 (FLT3(h)): ~10 µM

SMILES: Cc1cn(-c2cc(-c3nc4cc(NC(=O)c5cnoc5C)ccc4[nH]3)cc(C(F)(F)F)c2)cn1 [5d]
IC50 (FLT3(h)): 2.33 µM | times more potent than 5f against FLT3 (FLT3(h)): 6–8 times

SMILES: Cc1oncc1C(=O)Nc1ccc2[nH]c(-c3cc(-n4cncc4C)cc(C(F)(F)F)c3)nc2c1 [5e]
IC50 (FMS): 9.98 µM | IC50 (FLT3(h)): 1.62 µM | times more potent than 5f against FLT3 (FLT3(h)): 6–8 times

SMILES: Cc1oncc1C(=O)Nc1ccc2[nH]c(-c3cc(-n4ccnc4C)cc(C(F)(F)F)c3)nc2c1 [5f]
IC50 (FLT3(h)): 13.4 µM

SMILES: CC(C)(C)c1cc(NC(=O)Nc2ccc(-c3ccc(N)nc3)cc2)no1 [compound 1]
IC50 (FLT-3): 0.001 µM | IC50 (KIT): 0.001 µM

More lines, now with the values ahead:

IC50 (FLT3(h)): 2.25 µM
SMILES: Cc1oncc1C(=O)Nc1cccc2[nH]c(-c3cc(N4CCN(C)CC4)cc(C(F)(F)F)c3)nc12 [6a]

IC50 (FLT3(h)): 13.9 µM
SMILES: Cc1oncc1C(=O)Nc1cccc2[nH]c(-c3ccc(N4CCOCC4)c(C(F)(F)F)c3)nc12 [6b]

IC50 (FLT3(h)): 6.2 µM
SMILES: Cc1cn(-c2cc(-c3nc4c(NC(=O)c5cnoc5C)cccc4[nH]3)cc(C(F)(F)F)c2)cn1 [6c]
